Source: US10940139B2, “Compounds that interact with the Ras superfamily for the treatment of cancers, inflammatory diseases, rasopathies, and fibrotic disease” (Shy Therapeutics LLC, priority 2017, dated 2021)
Read-outs that look alike come from different tables or passages of the source.

Columns and labels:
Assay in all cases: Ras GTP binding domain inhibition assay (labeled GTP)
[1] = molecular target: KRas G12D/Q61H double mutant (Homo sapiens (Human), UniProt P01116, G12D/Q61H)
Procedure, shortened: (§1)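 Ni-plate capture of His-KRas (3-10 μg/ml, o/n, 4° C); Tris pH 7.5/MgCl2/DTT buffer, 1% DMSO. Cpd 20 μM or titration, 3 h RT. Cy3/Cy5-GTP 45 min RT, wash, fluorescence of bound GTP.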

KRas G12C mutant = KRas G12C mutant (Homo sapiens (Human), UniProt P01116, G12C)
KRas G12C mutant, sequence (P01116-2 other isoform, or with tags, fused parts or gaps G12C): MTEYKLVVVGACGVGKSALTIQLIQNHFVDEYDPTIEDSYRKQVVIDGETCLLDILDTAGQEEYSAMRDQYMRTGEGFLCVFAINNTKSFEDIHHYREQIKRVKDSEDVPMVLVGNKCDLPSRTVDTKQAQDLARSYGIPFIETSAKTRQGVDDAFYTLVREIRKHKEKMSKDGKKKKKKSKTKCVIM
Procedure, shortened: as §1

KRas wild type = KRas wild type (Homo sapiens (Human), UniProt P01116)
KRas wild type, sequence (P01116-2 other isoform, or with tags, fused parts or gaps): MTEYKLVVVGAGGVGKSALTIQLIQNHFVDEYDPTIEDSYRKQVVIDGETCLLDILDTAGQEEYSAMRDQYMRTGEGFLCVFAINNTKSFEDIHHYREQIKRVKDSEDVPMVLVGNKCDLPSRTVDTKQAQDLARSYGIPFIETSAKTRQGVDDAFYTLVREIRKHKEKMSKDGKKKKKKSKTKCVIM
Procedure, shortened: as §1

KRas G12D mutant protein = KRas G12D mutant protein (Homo sapiens (Human), UniProt P01116, G12D)
KRas G12D mutant protein, sequence (P01116-2 other isoform, or with tags, fused parts or gaps G12D): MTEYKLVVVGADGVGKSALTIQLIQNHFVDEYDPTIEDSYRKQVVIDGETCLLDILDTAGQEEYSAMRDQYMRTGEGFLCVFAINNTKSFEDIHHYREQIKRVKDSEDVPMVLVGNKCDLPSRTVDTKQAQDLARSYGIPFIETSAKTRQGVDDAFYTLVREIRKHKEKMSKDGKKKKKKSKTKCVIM

[2] = 20 μM compound, read-out: % Inhibition at 20 μM KRas G12D Q61H
[3] = 20 μM compound, read-out: % Inhibition at 20 μM KRas G12C
[4] = 20 μM compound, read-out: % Inhibition at 20 μM KRas wild type
[5] = 20 μM compound, read-out: % Inhibition at 20 μM KRas G12D
[6] = 20 μM, read-out: KRas G12D Q61H % Inh.
[7] = 20 μM, read-out: KRas G12C % Inh.
[8] = 20 μM, read-out: KRas wild type, % Inh.
[9] = 20 μM, read-out: KRas G12D % Inh.
[10] = 20 μM compound, KRas G12C, read-out: % Inhibition at 20 μM of K-Ras mutant and wild-type protein, KRas G12C
[11] = 20 μM compound, KRas wild type, read-out: % Inhibition at 20 μM of K-Ras mutant and wild-type protein, KRas wild type
[12] = 20 μM compound, KRas G12D, read-out: % Inhibition at 20 μM of K-Ras mutant and wild-type protein, KRas G12D

KRas G12D/Q61H double mutant, sequence (P01116-2 other isoform, or with tags, fused parts or gaps G12D/Q61H): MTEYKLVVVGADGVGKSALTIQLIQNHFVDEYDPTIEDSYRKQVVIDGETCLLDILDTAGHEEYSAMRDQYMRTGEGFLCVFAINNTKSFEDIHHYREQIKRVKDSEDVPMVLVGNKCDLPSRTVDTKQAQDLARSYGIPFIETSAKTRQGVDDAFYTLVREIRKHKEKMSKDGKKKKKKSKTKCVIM

| SMILES | inhibition at 20 µM (KRas G12C mutant; [10]) [%] | inhibition at 20 µM (KRas wild type; [11]) [%] | inhibition at 20 µM (KRas G12D mutant protein; [12]) [%] | further results |
| --- | --- | --- | --- | --- |
| O=C(c1ccc(=O)[nH]n1)N1CCCc2c(O)nc(-c3ccccn3)nc21 [drawing 2646] |  |  |  | inhibition at 20 µM [1, 2]: 25 to 50%; inhibition at 20 µM (KRas G12C mutant; [3]): 25 to 50%; inhibition at 20 µM (KRas wild type; [4]): 51 to 75%; inhibition at 20 µM (KRas G12D mutant protein; [5]): 51 to 75% |
| O=C(c1csc2c(O)nc(-c3ccccn3)nc12)N1CCC(c2cccnc2)CC1 [drawing 2682] |  |  |  | inhibition at 20 µM [1, 2]: 51 to 75%; inhibition at 20 µM (KRas G12C mutant; [3]): 25 to 50%; inhibition at 20 µM (KRas wild type; [4]): 76 to 100%; inhibition at 20 µM (KRas G12D mutant protein; [5]): 51 to 75% |
| O=C(c1csc2c(O)nc(-c3ccccn3)nc12)N1CCN(c2ccncc2)CC1 [drawing 2681] |  |  |  | inhibition at 20 µM [1, 2]: 51 to 75%; inhibition at 20 µM (KRas G12C mutant; [3]): 25 to 50%; inhibition at 20 µM (KRas wild type; [4]): 51 to 75%; inhibition at 20 µM (KRas G12D mutant protein; [5]): 51 to 75% |
| COC(=O)c1cccc(CN2CCC(CSc3ccccc3)C2)c1C#N (stereo not drawn) [drawing 2611] |  |  |  | inhibition at 20 µM [1, 6]: 25 to 50%; inhibition at 20 µM (KRas G12C mutant; [7]): 25 to 50%; inhibition at 20 µM (KRas wild type; [8]): 1 to 25%; inhibition at 20 µM (KRas G12D mutant protein; [9]): 1 to 25% |
| O=C(c1ccc2ccccc2n1)N1CCCc2c(O)nc(-c3ccccn3)nc21 [drawing 2642] |  |  |  | inhibition at 20 µM [1, 6]: 76 to 100%; inhibition at 20 µM (KRas G12C mutant; [7]): 51 to 75%; inhibition at 20 µM (KRas wild type; [8]): 25 to 50%; inhibition at 20 µM (KRas G12D mutant protein; [9]): 51 to 75% |
| Oc1nc(-c2ccccn2)nc2c1ncn2-c1ccccc1 [drawing 2697] |  |  |  | inhibition at 20 µM [1, 2]: 51 to 75%; inhibition at 20 µM (KRas G12C mutant; [3]): 25 to 50%; inhibition at 20 µM (KRas wild type; [4]): 51 to 75%; inhibition at 20 µM (KRas G12D mutant protein; [5]): 51 to 75% |
| O=C(Nc1nc(-c2ccccn2)cs1)c1ccccn1 [drawing 2573] |  |  |  | inhibition at 20 µM [1, 6]: 76 to 100%; inhibition at 20 µM (KRas G12C mutant; [7]): 51 to 75%; inhibition at 20 µM (KRas wild type; [8]): 51 to 75%; inhibition at 20 µM (KRas G12D mutant protein; [9]): 51 to 75% |
| O=C(OCCc1ccccc1)N1CCCc2c(O)nc(-c3ccccn3)nc21 [drawing 2653] |  |  |  | inhibition at 20 µM [1, 2]: 76 to 100%; inhibition at 20 µM (KRas G12C mutant; [3]): 25 to 50%; inhibition at 20 µM (KRas wild type; [4]): 51 to 75%; inhibition at 20 µM (KRas G12D mutant protein; [5]): 51 to 75% |
| OCCNc1nc(-c2ccccn2)nc2scc(-c3ccccc3)c12 [drawing 2603] |  |  |  | inhibition at 20 µM [1, 6]: 25 to 50%; inhibition at 20 µM (KRas G12C mutant; [7]): 1 to 25%; inhibition at 20 µM (KRas wild type; [8]): 1 to 25%; inhibition at 20 µM (KRas G12D mutant protein; [9]): 51 to 75% |
| O=C(Nc1nc(-c2ccccn2)cs1)c1ccncc1 [drawing 2578] |  |  |  | inhibition at 20 µM [1, 6]: 51 to 75%; inhibition at 20 µM (KRas G12C mutant; [7]): 51 to 75%; inhibition at 20 µM (KRas wild type; [8]): 51 to 75%; inhibition at 20 µM (KRas G12D mutant protein; [9]): 51 to 75% |
| COc1ccc(CCC(=O)N2CCCc3c(O)nc(-c4ccccn4)nc32)cc1 [drawing 2640] |  |  |  | inhibition at 20 µM [1, 6]: 51 to 75%; inhibition at 20 µM (KRas G12C mutant; [7]): 51 to 75%; inhibition at 20 µM (KRas wild type; [8]): 25 to 50%; inhibition at 20 µM (KRas G12D mutant protein; [9]): 25 to 50% |
| O=C(c1csc2c(O)nc(-c3ccccn3)nc12)N1CCOC(c2ccc(F)cc2)C1 (stereo not drawn) [drawing 2743] |  |  |  | inhibition at 20 µM [1, 2]: 51 to 75%; inhibition at 20 µM (KRas G12C mutant; [3]): 51 to 75%; inhibition at 20 µM (KRas wild type; [4]): 51 to 75%; inhibition at 20 µM (KRas G12D mutant protein; [5]): 51 to 75% |
| COc1ccc(-c2c(-c3ccccc3)sc3c(O)nc(-c4nccn4C)nc23)cn1 [drawing 3593] | 1 to 25 | 1 to 25 | 1 to 25 |  |
| Cn1cnc(-c2nc(O)c3scc(-c4cccc(C(F)(F)F)c4)c3n2)c1 [drawing 3604] | 25 to 50 | 51 to 75 | 25 to 50 |  |
| COCCNc1nc(-c2nccn2C)nc2sc(C)c(-c3ccccc3)c12 [drawing 3584] | 51 to 75 | 51 to 75 | 51 to 75 |  |
| COCCCNc1nc(-c2nccn2C)nc2sc(-c3ccccc3)c(-c3ccccc3)c12 [drawing 3570] | 51 to 75 | 51 to 75 | 51 to 75 |  |
| Cn1ccnc1-c1nc(O)c2scc(-c3ccccc3)c2n1 [drawing 3614] | 25 to 50 | 25 to 50 | 51 to 75 |  |
| COc1nc(-c2ccccn2)nc(Oc2cccc(C(F)(F)F)c2)c1O [drawing 3565] | 25 to 50 | 1 to 25 | 51 to 75 |  |
| CC(C)COc1ccc(-c2csc3c(O)nc(-c4cn(C)cn4)nc23)cn1 [drawing 3605] | 25 to 50 | 25 to 50 | 1 to 25 |  |

| SMILES | inhibition at 20 µM (KRas G12C mutant; [10]) [%] | inhibition at 20 µM (KRas wild type; [11]) [%] | inhibition at 20 µM (KRas G12D mutant protein; [12]) [%] | further results |
| --- | --- | --- | --- | --- |
| Cc1sc2c(O)nc(-c3nccn3C)nc2c1-c1ccccc1 [drawing 3594] | 25 to 50 | 25 to 50 | 25 to 50 |  |
| CC(CO)Nc1nc(-c2nccn2C)nc2sc(-c3ccccc3)c(-c3ccccc3)c12 (stereo not drawn) [drawing 3578] | 25 to 50 | 0 | 1 to 25 |  |
| Oc1nc(-c2ccncn2)nc2c(-c3cccc(C(F)(F)F)c3)csc12 [drawing 3607] | 25 to 50 | 25 to 50 | 1 to 25 |  |
| Cn1ccnc1-c1nc(O)c2scc(-c3ccccc3Cl)c2n1 [drawing 3615] | 25 to 50 | 25 to 50 | 25 to 50 |  |
| COCCNc1nc(-c2cccc(N)n2)nc2sc(-c3ccccc3)c(-c3ccccc3)c12 [drawing 3591] | 1 to 25 | 0 | 0 |  |
| Cn1ccnc1-c1nc(NCCOC2CC2)c2c(-c3ccccc3)c(-c3ccccc3)sc2n1 [drawing 3576] | 25 to 50 | 25 to 50 | 1 to 25 |  |
| Cn1ccnc1-c1nc(O)c2scc(-c3cccc(Cl)c3)c2n1 [drawing 3617] | 25 to 50 | 25 to 50 | 25 to 50 |  |
| COC(C)(C)c1ccc(-c2csc3c(O)nc(-c4nccn4C)nc23)cc1 [drawing 3618] | 0 | 25 to 50 | 25 to 50 |  |
| CC(C)COc1ccc(-c2csc3c(O)nc(-c4nccn4C)nc23)cn1 [drawing 3612] | 25 to 50 | 25 to 50 | 76 to 100 |  |
| CC(C)Oc1ccc(-c2csc3c(O)nc(-c4nccn4C)nc23)cc1F [drawing 3609] | 25 to 50 | 25 to 50 | 25 to 50 |  |
| Cc1sc2c(O)nc(-c3nccn3C)nc2c1-c1ccc(OCC(C)C)nc1 [drawing 3600] | 1 to 25 | 1 to 25 | 1 to 25 |  |
| CCN(CC)CCOc1nc(-c2nccn2C)nc2sc(-c3ccccc3)c(-c3ccccc3)c12 [drawing 3573] | 25 to 50 | 51 to 75 | 25 to 50 |  |
| Cn1ccnc1-c1nc(O)c2sc(-c3ccccc3)c(-c3ccccc3)c2n1 [drawing 3588] | 0 | 1 to 25 | 0 |  |
| COCCNc1nc(-c2nccn2C)nc2sc(-c3cccc(OC)c3)c(-c3ccccc3)c12 [drawing 3586] | 1 to 25 | 25 to 50 | 25 to 50 |  |
| COCCN(C)c1nc(-c2nccn2C)nc2sc(-c3ccccc3)c(-c3ccccc3)c12 [drawing 3566] | 25 to 50 | 51 to 75 | 51 to 75 |  |
| COCCNc1nc(-c2nccn2C)nc2sc(-c3ccc(OC)cc3)c(-c3ccccc3)c12 [drawing 3597] | 1 to 25 | 1 to 25 | 25 to 50 |  |
| Cn1ccnc1-c1nc(O)c2sc(-c3ccccc3)c(-c3cccc(C(F)(F)F)c3)c2n1 [drawing 3592] | 0 | 1 to 25 | 0 |  |
| COCCNc1nc(-c2nccn2C)nc2sc(-c3ccccc3)c(-c3ccc(OC)cc3)c12 [drawing 3589] | 25 to 50 | 25 to 50 | 25 to 50 |  |
